From ChEMBL document CHEMBL6134844, “Development of Next-Generation Antimalarial Acridones with Radical Cure Potential” (J Med Chem, 2025)

How the values were obtained:
[1] = (§1) Selectivity index, ratio of CC50 for Macaca mulatta hepatocytes to IC50 for antiplasmodial activity against schizont Plasmodium cynomolgi B strain infected in Macaca mulatta hepatocytes incubated with sporozoite containing salivary gland homogenate obtained from dissected Anopheles dirus mosquitoes (infected with Plasmodium cynomolgi B strain) treatment started on day 4 post infection and continued daily for 4 days into fresh changed media until day 8 assessed as Liver stage (LS) activity by measuring prophylactic mode by immunofluorescent staining analysis; type: toxicity, cell-based; conditions: rhesus monkey, read-out: Selectivity Index
[2] = Toxicity in CF1 mouse infected with asexual blood-stage (ABS) Plasmodium yoelii MRA-428 assessed as clinical toxicity at 0.3 to 30 mg/kg, po treated 24 hrs post infection measured after 4 days; type: organism-based; conditions: in vivo, dose 0.3-30 mg/kg
Hepatocyte = assay: Cytotoxicity against Macaca mulatta hepatocytes assessed as cell viability measured after 48 hrs by MTT assay; type: toxicity, cell-based; conditions: rhesus monkey, 48 h
Plasmodium falciparum [3] = assay: Antiplasmodial activity against asexual blood-stage (ABS) ATV-resistant clinical isolate Plasmodium falciparum Tm90-C2B infected in human erythrocytes assessed as reduction in fluorescence measured after 72 hrs by Malaria SYBR Green I-based Fluorescence (MSF) assay; type: functional, organism-based; conditions: Erythrocyte
[4] = as §1, with “hypnozoite” for “schizont”; type: toxicity, cell-based; conditions: rhesus monkey, read-out: Selectivity Index
Plasmodium cynomolgi [5] = assay: as §1, with “Antiplasmodial” for “Selectivity index, ratio of CC50 for Macaca mulatta hepatocytes to IC50 for antiplasmodial”, “radical cure” for “prophylactic”; type: functional, organism-based; conditions: Hepatocyte
[6] = mouse, microsomes, 1 h
[7] = human, microsomes, 1 h
Plasmodium yoelii [8] = assay: In vivo antiplasmodial activity against asexual blood-stage (ABS) Plasmodium yoelii MRA-428 infected in 4-day suppression CF1 mouse model assessed as reduction in parasitemia treated 24 hrs post infection daily measured on day 4; type: functional
Plasmodium falciparum [9] = assay: Antiplasmodial activity against asexual blood-stage (ABS) MDR Plasmodium falciparum Dd2 infected in human erythrocytes assessed as reduction in fluorescence measured after 72 hrs by Malaria SYBR Green I-based Fluorescence (MSF) assay; type: functional, organism-based; conditions: Dd2, Erythrocyte
HepG2 = assay: Cytotoxicity against human HepG2 cells assessed as cell viability measured after 48 hrs by MTT assay; type: functional, cell-based; conditions: HepG2, 48 h
Plasmodium cynomolgi [10] = assay: as §1, with “Antiplasmodial” for “Selectivity index, ratio of CC50 for Macaca mulatta hepatocytes to IC50 for antiplasmodial”, “hypnozoite” for “schizont”; type: functional, organism-based; conditions: Hepatocyte
[11] = as §1, with “hypnozoite” for “schizont”, “radical cure” for “prophylactic”; type: toxicity, cell-based; conditions: rhesus monkey, read-out: Selectivity Index
Plasmodium falciparum [12] = assay: Antiplasmodial activity against asexual blood-stage (ABS) CQ-sensitive Plasmodium falciparum D6 infected in human erythrocytes assessed as reduction in fluorescence measured after 72 hrs by Malaria SYBR Green I-based Fluorescence (MSF) assay; type: functional, organism-based; conditions: D6, Erythrocyte
[13] = Toxicity in CF1 mouse infected with asexual blood-stage (ABS) Plasmodium yoelii MRA-428 assessed as behavioural change at 0.3 to 30 mg/kg, po treated 24 hrs post infection measured after 4 days; type: organism-based; conditions: in vivo, dose 0.3-30 mg/kg
[14] = as §1, with “radical cure” for “prophylactic”; type: toxicity, cell-based; conditions: rhesus monkey, read-out: Selectivity Index
Plasmodium cynomolgi [15] = assay: as §1, with “Antiplasmodial” for “Selectivity index, ratio of CC50 for Macaca mulatta hepatocytes to IC50 for antiplasmodial”; type: functional, organism-based; conditions: Hepatocyte
Plasmodium cynomolgi [16] = assay: as §1, with “Antiplasmodial” for “Selectivity index, ratio of CC50 for Macaca mulatta hepatocytes to IC50 for antiplasmodial”, “hypnozoite” for “schizont”, “radical cure” for “prophylactic”; type: functional, organism-based; conditions: Hepatocyte
[17] = Toxicity in CF1 mouse infected with asexual blood-stage (ABS) Plasmodium yoelii MRA-428 assessed as hyperactivity at 0.3 to 30 mg/kg, po treated 24 hrs post infection measured after 4 days; type: organism-based; conditions: in vivo, 96 h, dose 0.3-30 mg/kg, time 4 day
[18] = Toxicity in CF1 mouse infected with asexual blood-stage (ABS) Plasmodium yoelii MRA-428 assessed as ruffled hair at 0.3 to 30 mg/kg, po treated 24 hrs post infection measured after 4 days; type: organism-based; conditions: in vivo, 96 h, dose 0.3-30 mg/kg, time 4 day
[19] = Toxicity in CF1 mouse infected with asexual blood-stage (ABS) Plasmodium yoelii MRA-428 assessed as lethargy at 0.3 to 30 mg/kg, po treated 24 hrs post infection measured after 4 days; type: organism-based; conditions: in vivo, 96 h, dose 0.3-30 mg/kg, time 4 day
[20] = Toxicity in CF1 mouse infected with asexual blood-stage (ABS) Plasmodium yoelii MRA-428 assessed as weight loss at 0.3 to 30 mg/kg, po treated 24 hrs post infection measured after 4 days; type: organism-based; conditions: in vivo, 96 h, dose 0.3-30 mg/kg, time 4 day
[21] = Toxicity in CF1 mouse infected with asexual blood-stage (ABS) Plasmodium yoelii MRA-428 assessed as hunching at 0.3 to 30 mg/kg, po treated 24 hrs post infection measured after 4 days; type: organism-based; conditions: in vivo, 96 h, dose 0.3-30 mg/kg, time 4 day
Plasmodium yoelii [22] = assay: In vivo antiplasmodial activity against asexual blood-stage (ABS) Plasmodium yoelii MRA-428 infected in 4-day suppression CF1 mouse model assessed as reduction in parasitemia by measuring protection at 30 mg/kg, po treated 24 hrs post infection daily measured up to 28 days; type: functional, organism-based; conditions: time <= 28.0 day
Plasmodium berghei [23] = assay: In vivo antiplasmodial activity against luciferase expressing liver stage Plasmodium berghei ANKA MRA-868 sporozoites infected in Albino C57BL/6 mouse model assessed as blood stage infection at 40 mg/kg, po daily measured 72 hrs; type: functional, organism-based
Plasmodium berghei [24] = assay: In vivo antiplasmodial activity against luciferase expressing liver stage Plasmodium berghei ANKA MRA-868 sporozoites infected in Albino C57BL/6 mouse model assessed as protection at 10 mg/kg, po daily measured 24 to 72 hrs by real-time In Vivo Imaging System (IVIS); type: functional; conditions: time lower 24.0 hrs, time upper […]

SMILES	selectivity ratio at 96 h [1]	Activity [2]	CC50 (Hepatocyte) [nM]	IC50 (Plasmodium falciparum [3]) [nM]	selectivity ratio at 96 h [4]	IC50 (Plasmodium cynomolgi [5]) [nM]	CLH [6] [µL/min/mg]	t1/2 [7] [h]	ED50 (Plasmodium yoelii [8]) [mg/kg]	ED90 (Plasmodium yoelii [8]) [mg/kg]	IC50 (Plasmodium falciparum [9]) [nM]	IC50 (HepG2) [nM]	IC50 (Plasmodium cynomolgi [10]) [nM]	selectivity ratio at 96 h [11]	IC50 (Plasmodium falciparum [12]) [pM]	Activity [13]	selectivity ratio at 96 h [14]	IC50 (Plasmodium cynomolgi [15]) [nM]	IC50 (Plasmodium cynomolgi [16]) [nM]	further results
O=c1c2ccc(OCc3ccc(OC(F)(F)F)cc3)cc2[nH]c2cc(Cl)cc(F)c12	10.4	Non-toxic	830	30.4	1.76	280	< 3.125	> 1	0.1	0.55	0.128	177000	470	1.77	0.041	Non-toxic	2.96	80	470	
O=c1c2ccc(OCc3ccc(C(F)(F)F)cc3)cc2[nH]c2cc(Cl)cc(F)c12	15.2	Non-toxic	2130	34.9	3.33	810	< 3.125	> 1	0.32	1.42	0.182	153000	640	2.34	0.052	Non-toxic	2.63	140	910	
O=c1c2c([nH]c3ccc(Oc4ccc(OC(F)(F)F)cc4)cc13)CCCC2	> 40	Non-toxic	> 20000	29.9	> 5.25	> 20000	56.8		1.8	7.8	13.3	> 200000	3810		7550	Non-toxic		500	> 20000	Activity [17]: Non-toxic; Activity [18]: Non-toxic; Activity [19]: Non-toxic; Activity [20]: Non-toxic; Activity [21]: Non-toxic
CCN(CC)CCCC(C)Nc1ccnc2cc(Cl)ccc12 (stereo not drawn) [CHLOROQUINE]		Non-toxic														Non-toxic				
O=c1c2ccc(Oc3cccc(OC(F)(F)F)c3)cc2[nH]c2cc(Cl)cc(F)c12	> 667	Non-toxic	> 20000	8.6	> 35.7	16100	273		0.19	0.9	0.02	> 200000	560		70	Non-toxic	> 1.24	30	> 20000	
O=c1c2ccc(Oc3ccc(OC(F)(F)F)cc3)cc2[nH]c2cc(F)c(Cl)cc12	> 33.3	Non-toxic	> 20000	48.4	> 48.8	6550	< 3.125	> 1		0.17	4.35	> 200000	410		4380	Non-toxic	> 3.05	600	> 20000	Activity (Plasmodium yoelii [22]): Active; Out Of 4 - 3 Mouse Cured
CC(C)(C)OC(=O)N1CCC(Oc2ccc3c(=O)c4c(F)cc(Cl)cc4[nH]c3c2)C1 (stereo not drawn)	176	Non-toxic	12300	113	18.4	960	< 3.125	> 1	0.1	0.43	0.183	> 2500	670	4.96		Non-toxic	12.8	70	2480	
CCCCCCOc1ccc2c(=O)c3c([nH]c2c1)CCCC3	> 7.09		> 20000	5.11		> 20000	37.6				2.73	> 200000	> 20000		477			2820	> 20000	Activity [17]: Non-toxic; Activity [18]: Non-toxic; Activity [19]: Non-toxic; Activity [20]: Non-toxic; Activity [21]: Non-toxic; Activity (Plasmodium berghei [23]): Active; Out Of 5 - 5 Mouse Cured
COc1cc(C)c2c(Oc3cccc(C(F)(F)F)c3)c(OC)cc(NC(C)CCCN)c2n1 (stereo not drawn) [TAFENOQUINE]	380		15200		89.4	5440							170	1.95			2.79	40	7810	Activity (Plasmodium berghei [24]): Not active; Out Of 5 - 0 Mouse Cured
O=c1c2ccc(OCc3cccc(OC(F)(F)F)c3)cc2[nH]c2cc(F)cc(Cl)c12	39.5	Non-toxic	5930	20.4	5.09	3520	33.5	> 1			0.004	> 200000	1170	1.4	30	Non-toxic	1.68	150	4230	Activity (Plasmodium berghei [23]): Active; Out Of 5 - 5 Mouse Cured
CC(C)(C)OC(=O)N1CCC(Oc2ccc3c(=O)c4c(F)cc(Cl)cc4[nH]c3c2)CC1	43.4	Non-toxic	2170	271	4.62	670	58.5	> 1	0.34	0.72	0.295	59900	470	1.22	0.7	Non-toxic	3.24	50	1780	
